# Where “and” joins values, the source holds several entries; their conditions need not be identical. Identical values can stand only once. Like-named read-outs stand apart in the source and are kept apart here.
# Columns and labels:
# [1] = tested on: P. falciparum SB1-A6 strain; assay: SYBR Green growth assay, asexual blood stages, SB1-A6 strain; assay type: cell-based, Plasmodium falciparum
# Procedure: (§1) Healthy blood samples for parasite culture were obtained from voluntary donors (approved under protocol #28176720.9.0000.0011), processed to remove white blood cells, and stored at 2 °C–8 °C for up to 15 days. Parasite strains SB1-A6, 7G8, V1/S, and HB3 were acquired from BEI-MR4, while the ATQ R1 strain, carrying a V259L gene mutation, was generated in-house. Infected erythrocytes were cultured in RPMI 1640 medium supplemented with Hepes, sodium bicarbonate, glucose, Albumax, and gentamicin, […], and incubated in a 5% CO2, 5% O2, and 90% N2 gas mixture at 37 °C with daily medium changes. Parasitemia was monitored using Giemsa-stained blood smears.
# (§2) Bioassays were conducted with synchronized ring-stage parasites using sorbitol synchronization. Antimalarial compounds were evaluated in 96-well plates, and parasite growth was assessed using a SYBR Green-based fluorescence assay The assays were conducted when the parasite quantity reached at least 70% of the ring stage. Compounds were initially added at specific concentrations in the first wells, followed by serial dilution (1:2) ranging from 20 μM to 0.009 μM. Subsequently, a solution containing parasites in RPMI medium at a hematocrit of 2% was added to each well, and the parasites were then incubated for 72 h.
# (§3) To assess parasite growth, the culture medium was replaced with a lysis solution (Trisbase: 49.31%, EDTA: 30.00%, Saponin: 0.16%, Triton: 0.02%) containing the fluorescent dye SYBR Green (Sigma). After a 30 min incubation, fluorescence readings were taken to determine the 50% inhibitory concentration (IC50) of parasite growth. The IC50 values were determined using concentration–response curves generated in GraphPad 8 software. Additionally, the resistance index was calculated by comparing IC50 values obtained for the sensitive 3D7 strain with those of the resistant strains.
# [2] = tested on: P. falciparum DHODH strain; assay: SYBR Green growth assay, asexual blood stages, DHODH resistant mutant; assay type: cell-based, Plasmodium falciparum
# Procedure: as §1, §2, §3
# [3] = tested on: P. berghei hepatic stages; assay: Hepatic stage bioluminescence assay, Huh-7 cells infected with luciferase-expressing sporozoites; assay type: cell-based, Plasmodium berghei; details: Plasmodium berghei; Huh-7 cells, 48 h after sporozoite addition; read-out: IC50 (μM) Pb liver stages
# Procedure: (§4) Huh-7 cells were cultured in RPMI 1640 medium (Sigma) supplemented with 10% v/v fetal bovine serum (FBS), 1% v/v penicillin/streptomycin, 1% v/v glutamine, 1% v/v nonessential amino acids, and 10 mM HEPES, pH 7. For compound dilution, a medium containing 1:1000 gentamicin (G) and 1:300 fungizone (F) was used. Cells were seeded at 1 × 10^4 cells/well in 96-well plates and incubated at 37 °C with 5% CO2. After 24 h, compounds were diluted in RPMI+F+G, and after removal of the culture medium, added to the cells in triplicate. DMSO and atovaquone were used as negative and positive controls, respectively. Following incubation for 1 h at 37 °C, 5% CO2, the cells were infected with luciferase-expressing P. berghei sporozoites (4,000 parasites per well) freshly extracted from the salivary glands of infected mosquitoes reared at the GIMM insectarium. The viability of Huh-7 cells exposed to the compounds was assessed 46 h later by the AlamarBlue assay (Invitrogen, UK) measurement, and parasite burden was measured 48 h after sporozoite addition using a bioluminescence assay (Biotium). IC50 values were calculated using GraphPad Prism through nonlinear regression analysis of normalized dose–response curves.
# [4] = tested on: P. berghei exflagellation centers; assay: Ex vivo exflagellation assay, blood of P. berghei infected mice; assay type: cell-based, Plasmodium berghei; details: 15 min incubation
# Procedure: For the ex vivo assays, a female CD1 mouse between 4 and 5 weeks of age (n = 3) was infected with P. berghei. After 4 days, when the presence of parasites (sexual phases) in the blood was observed by Giemsa-stained blood smear microscopy, the total blood from the mouse was collected into a preheated tube at 37 °C containing RPMI medium supplemented with 20% Fetal Bovine Serum (FBS) and 200 units/mL of heparin as an anticoagulant. The tube was maintained at 37 °C and centrifuged at 1500 rpm for 5 min. The supernatant was discarded, and the blood was resuspended in 20 mL of RPMI medium supplemented with 20% FBS.
# One milliliter of resuspended blood was added to each well of a 6-well plate containing 5 μM methylene blue (positive control), test compound 1 at 10 μM and 1 μM, and DMSO (negative control). After 15 min, the wells were homogenized, and 10 μL of the content was collected into an Eppendorf tube and incubated at room temperature for another 15 min. The sample was then transferred to a Neubauer chamber, and exflagellation centers were counted using an optical microscope at 40× magnification.
# [5] = tested on: Huh-7 cells; assay: Alamar Blue cell confluency (cytotoxicity) in Huh-7 cells; assay type: cell-based
# Procedure: as §4, with “For” for “Huh-7 cells were cultured in RPMI 1640 medium (Sigma) supplemented with 10% v/v fetal bovine serum (FBS), 1% v/v penicillin/streptomycin, 1% v/v glutamine, 1% v/v nonessential amino acids, and 10 mM HEPES, pH 7. For”, “DMSO and atovaquone were used as negative and positive controls, respectively.” left out
# On the first day of the assay, the compounds were diluted at 10 and 1 μM in cRPMI medium supplemented with fungizone. and gentamicin. The culture medium of Huh-7 cells was removed and replaced with compound dilutions in triplicate. As a control, a DMSO dilution mimicking the highest compound concentration used was included. The cells were incubated for 1 h at 37 °C in a 5% CO2 atmosphere.
# On the second day of the assay, compound toxicity was assessed by measuring cell confluency using the Alamar Blue/CellTiter Blue reagent. First, reagent aliquots stored at −20 °C were thawed and diluted at a 1:20 ratio in cRPMI. The culture medium was removed and replaced with 80 μL of the solution per well, followed by incubation at 37 °C and 5% CO2 for 1 h and 30 min. Fluorescence was measured using a plate reader with the Tecan i-Control software.
# [6] = tested on: P. falciparum ATQ_R1 strain; assay: SYBR Green growth assay, asexual blood stages, ATQ_R1 strain; assay type: cell-based, Plasmodium falciparum; details: for IC50: Plasmodium falciparum
# Procedure: as §1, §2, §3
Structure (SMILES),"IC50 ([1]; Plasmodium falciparum, 72 h) [µM]",RI (resistance index) ([1]; ratio of IC50 SB1-A6 to 3D7),"IC50 ([2]; Plasmodium falciparum, 72 h) [µM]",RI (resistance index) ([2]; ratio of IC50 DHODH to 3D7),IC50 [3] [µM],reduction of exflagellation centers (ex vivo) ([4]; 1 μM),reduction of exflagellation centers (ex vivo) ([4]; 10 μM),Confluency % ([5]; 1 μM) [%],Confluency % ([5]; 10 μM) [%],IC50 ([6]; 72 h) [µM],IC50 ([6]; read-out: IC50 (Figure S1)) [µM],RI (resistance index) ([6]; ratio of IC50 ATQ_R1 to 3D7)
"CCCCCCCCCCCc1cc(=O)c2ccccc2[nH]1 [compound 1, 2-Undecilquinolin-4(1H)-one]",7 ± 1,35,0.06 ± 0.01,0.3,0.25 ± 0.01,"23,8% and 24%","63,9% and 64%",97 ± 6,79 ± 2,0.6 ± 0.1,0.8,3.0
"CCCCCCOc1ccc(-c2cc(=O)c3ccccc3[nH]2)cc1 [compound 6, 2-(4-(Hexyloxy)-phenyl)-quinolin-4(1H)-one]",,,,,0.38 ± 0.04,,,105 ± 3,102 ± 11,,,

# — article PMC12631437, “Evaluation of the Activity of 4‑Quinolones against Multi-Life Stages of Plasmodium spp” (ACS Omega, 2025)
